This series addresses T1, CES1c (Homo sapiens, UniProt P23141).
T1 construct: purchased Corning Incorporated (Corning, NY); host or cells: baculovirus-infected insect cells (microsomal fraction, Supersomes)
T1 sequence (P23141 18-566 isoform P23141-3 limits assumed): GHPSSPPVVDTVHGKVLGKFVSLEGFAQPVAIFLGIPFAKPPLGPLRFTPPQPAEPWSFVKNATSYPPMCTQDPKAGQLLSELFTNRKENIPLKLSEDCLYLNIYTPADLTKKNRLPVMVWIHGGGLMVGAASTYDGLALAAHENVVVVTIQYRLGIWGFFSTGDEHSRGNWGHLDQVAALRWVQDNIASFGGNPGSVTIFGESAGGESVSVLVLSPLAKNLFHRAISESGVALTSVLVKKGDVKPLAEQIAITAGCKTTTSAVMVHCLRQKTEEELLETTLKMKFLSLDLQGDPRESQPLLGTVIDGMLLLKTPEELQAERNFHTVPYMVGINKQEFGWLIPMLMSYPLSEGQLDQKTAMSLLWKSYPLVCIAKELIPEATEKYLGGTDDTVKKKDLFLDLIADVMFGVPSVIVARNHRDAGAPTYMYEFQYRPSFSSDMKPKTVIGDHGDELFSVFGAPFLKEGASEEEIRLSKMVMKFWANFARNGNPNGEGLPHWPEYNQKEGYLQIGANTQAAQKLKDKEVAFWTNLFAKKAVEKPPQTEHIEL
The experiment in a line: CES1c-catalyzed hydrolysis of RDV and control (substrate disappearance, LC-MS). It is filed as in vitro ADME. As for the experimental part: The catalytic activity of carboxylesterase 1b (CES1b), carboxylesterase 1c (CES1c), CES2, and CatA toward RDV hydrolysis was measured using protein-enriched subcellular fraction (CES isozymes) or recombinant proteins (CatA). The reaction rates were determined by monitoring the disappearance of RDV using a liquid chromatography-mass spectrometry (LC-MS) method.
RDV or positive-control substrates (oseltamivir for CES1 or procaine for CES2) were incubated with individual Supersome preparations (final CES concentration, 1.5 mg/ml) in 0.1 M potassium phosphate buffer (pH 7.4) at 37°C. Substrates were added to a final concentration of 1 μM to initiate the reaction. The final incubation volume was 250 μl. Aliquots were removed after incubation for 0, 10, 30, 60, and 120 min. The reactions were stopped by the addition of the quench solution containing the LC-MS internal standard (IS) (labetalol). Following protein precipitation and centrifugation, 150 μl of supernatant was dried down and reconstituted with 250 μl water. All samples were analyzed by an LC-MS, and the analyte/internal standard peak area ratio (PAR) values were used for quantification. Disappearance of RDV or positive-control compounds was monitored over the incubation time period. Three experiments were conducted with two replicates in each experiment, and data are reported as averages from the three experiments.
In all studies apart from those with CES1 and CatA with enzyme inhibitors, samples (10-μl aliquots) were injected with a Thermo Scientific autosampler. The LC instrumentation consisted of a Thermo Scientific Dionex UltiMate 3000 RS pump, and the LC column was a Waters Acquity UPLC BEH C18 (1.7 μm particle size, 2.1 by 50 mm). Mobile phases A and B were water 99.9% (vol/vol) containing 0.1% (vol/vol) formic acid, and acetonitrile 99.9% (vol/vol) containing 0.1% (vol/vol) formic acid, respectively, pumped at 0.2 ml/minute. Elution was achieved by a series of linear gradients over 2.33 min followed by reequilibration for 2.57 min. The MS instrument was a Thermo Q Exactive Hybrid Quadrupole-Orbitrap operating in positive or negative ionization mode as appropriate. This was calibrated on a weekly basis, and data were processed with GMSU 8.4.66 software by Gubbs Inc. (Alpharetta, GA). Mass tolerance of 5 ppm was used.

This note sets out measurements from publication PMC8370248, “Key Metabolic Enzymes Involved in Remdesivir Activation in Human Lung Cells” (Antimicrobial Agents and Chemotherapy, 2021).

Each structure is given as a SMILES string.

As to `CCC(CC)COC(=O)[C@H](C)N[P@](=O)(OC[C@H]1O[C@@](C#N)(c2ccc3c(N)ncnn23)[C@H](O)[C@@H]1O)Oc1ccccc1` [RDV, Remdesivir], the half-life at 1 μM (human, CES1c Supersomes (protein-enriched subcellular fraction), 1 μM substrate, CES 1.5 mg/ml, pH 7.4, 37°C, read-out: t1/2, CES1c (converted)) is 7.7 min. Moreover, the “CES1c hydrolysis rate relative to oseltamivir” value (times faster than positive control oseltamivir) turned out to be 4 times.
